Measurements from PubChem BioAssay (NCI).
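Growth conditions: 96-well plates. Treatment: test compound, 48 hours, 5 concentrations. Analysis: linear interpolation between bracketing concentrations; unreached endpoints set to highest concentration. TGI marks complete inhibition of growth.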

How the values were obtained:
Test in all cases: NCI-60 cell line screen, 48 h
[1] = system: HCC-2998 colon
[2] = system: IGROV1 ovarian
[3] = system: CCRF-CEM leukemia
[4] = system: SNB-19 CNS
[5] = system: SK-OV-3 ovarian
[6] = system: M14 melanoma
[7] = system: T-47D breast
[8] = system: OVCAR-8 ovarian
[9] = system: SW-620 colon
[10] = system: MDA-N
[11] = system: HCT-15 colon
[12] = system: HOP-62 NSCLC
[13] = system: HS 578T breast
[14] = system: A498 renal
[15] = system: CAKI-1 renal
[16] = system: UACC-62 melanoma
[17] = system: MCF7 breast
[18] = system: U251 CNS
[19] = system: ACHN renal
[20] = system: SK-MEL-5 melanoma
[21] = system: SN12C renal
[22] = system: UACC-257 melanoma
[23] = system: SK-MEL-28 melanoma
[24] = system: NCI/ADR-RES ovarian
[25] = system: SR leukemia
[26] = system: HCT-116 colon
[27] = system: OVCAR-5 ovarian
[28] = system: NCI-H23 lung
[29] = system: 786-0 renal
[30] = system: MOLT-4 leukemia
[31] = system: PC-3 prostate
[32] = system: DU-145 prostate
[33] = system: COLO 205 colon
[34] = system: OVCAR-3 ovarian
[35] = system: SF-295 CNS
[36] = system: HT29 colon
[37] = system: UO-31 renal
[38] = system: K-562 leukemia
[39] = system: MDA-MB-435
[40] = system: SF-268 CNS
[41] = system: EKVX NSCLC
[42] = system: NCI-H226 lung
[43] = system: KM12 colon
[44] = system: OVCAR-4 ovarian
[45] = system: NCI-H522 lung
[46] = system: MDA-MB-231 breast
[47] = system: RXF 393 renal
[48] = system: MALME-3M melanoma
[49] = system: A549 NSCLC
[50] = system: BT-549 breast
[51] = system: HOP-92 NSCLC
[52] = system: SF-539 CNS
[53] = system: TK-10 renal
[54] = system: NCI-H460 lung
[55] = system: SK-MEL-2 melanoma
[56] = system: SNB-75 CNS
[57] = system: RPMI-8226 leukemia
[58] = system: LOX IMVI melanoma

CC(C)C(=O)NCC[C@@H](CNC(=O)OC(C)(C)C)NC(=O)OC(C)(C)C
TGI [1]: > 100 µM | TGI [2]: > 100 µM | TGI [3]: > 100 µM | TGI [4]: > 100 µM | TGI [5]: > 100 µM | TGI [6]: > 100 µM | TGI [7]: > 100 µM | TGI [8]: > 100 µM | TGI [9]: > 100 µM | TGI [10]: > 100 µM | TGI [11]: > 100 µM | TGI [12]: > 100 µM | TGI [13]: > 100 µM | TGI [14]: > 100 µM | TGI [15]: > 100 µM | TGI [16]: > 100 µM | TGI [17]: > 100 µM | TGI [18]: > 100 µM | TGI [19]: > 100 µM | TGI [20]: > 100 µM | TGI [21]: > 100 µM | TGI [22]: > 100 µM | TGI [23]: > 100 µM | TGI [24]: > 100 µM | TGI [25]: > 100 µM | TGI [26]: > 100 µM | TGI [27]: > 100 µM | TGI [28]: > 100 µM | TGI [29]: > 100 µM | TGI [30]: > 100 µM | TGI [31]: > 100 µM | TGI [32]: > 100 µM | TGI [33]: > 100 µM | TGI [34]: > 100 µM | TGI [35]: > 100 µM | TGI [36]: > 100 µM | TGI [37]: > 100 µM | TGI [38]: > 100 µM | TGI [39]: > 100 µM | TGI [40]: > 100 µM | TGI [41]: > 100 µM | TGI [42]: > 100 µM | TGI [43]: > 100 µM | TGI [44]: > 100 µM | TGI [45]: > 100 µM | TGI [46]: > 100 µM | TGI [47]: > 100 µM | TGI [48]: > 100 µM | TGI [49]: > 100 µM | TGI [50]: > 100 µM | TGI [51]: > 100 µM | TGI [52]: > 100 µM | TGI [53]: > 100 µM | TGI [54]: > 100 µM | TGI [55]: > 100 µM | TGI [56]: > 100 µM

CCOC(=O)/C=C/C1OC(C)(C)OC1/C=C/C(=O)OCC (stereo not drawn)
TGI [1]: 47.4 µM | TGI [2]: > 100 µM | TGI [3]: 57.7 µM | TGI [4]: > 100 µM | TGI [5]: > 100 µM | TGI [6]: > 100 µM | TGI [7]: > 100 µM | TGI [8]: 82.7 µM | TGI [9]: 49.2 µM | TGI [10]: > 100 µM | TGI [11]: 64.2 µM | TGI [12]: > 100 µM | TGI [13]: > 100 µM | TGI [14]: > 100 µM | TGI [15]: 54.7 µM | TGI [16]: > 100 µM | TGI [17]: > 100 µM | TGI [18]: > 100 µM | TGI [19]: > 100 µM | TGI [20]: > 100 µM | TGI [21]: > 100 µM | TGI [22]: > 100 µM | TGI [23]: 87.7 µM | TGI [24]: > 100 µM | TGI [25]: 43.3 µM | TGI [26]: > 100 µM | TGI [27]: > 100 µM | TGI [28]: > 100 µM | TGI [29]: > 100 µM | TGI [30]: 63.3 µM | TGI [31]: > 100 µM | TGI [32]: > 100 µM | TGI [33]: > 100 µM | TGI [35]: > 100 µM | TGI [36]: 57.6 µM | TGI [37]: > 100 µM | TGI [38]: 48.4 µM | TGI [39]: > 100 µM | TGI [40]: > 100 µM | TGI [41]: 94.9 µM | TGI [42]: > 100 µM | TGI [43]: 70.7 µM | TGI [44]: > 100 µM | TGI [45]: 51.1 µM | TGI [46]: > 100 µM | TGI [47]: > 100 µM | TGI [48]: > 100 µM | TGI [49]: > 100 µM | TGI [50]: > 100 µM | TGI [51]: 41.8 µM | TGI [52]: > 100 µM | TGI [53]: > 100 µM | TGI [54]: 48.9 µM | TGI [55]: > 100 µM | TGI [56]: > 100 µM | TGI [57]: 47.7 µM | TGI [58]: > 100 µM
